The logD is the decadic logarithm of the distribution of all forms, ionised or not, between an organic phase and buffer at a given pH. A low value points to lower lipophilicity. Broadly, the Papp is the rate of passage across a membrane or cell layer, normalised by area and donor concentration.

22 molecules from ChEMBL document CHEMBL5257058, “Passive Membrane Permeability of Sizable Acyclic β-Hairpin Peptides” (ACS Med Chem Lett, 2023) can be followed below.

In brackets after ≈: the same amount, converted by molar mass. Where a SMILES comes first, the peptide text is derived from it. Bridges are numbered along the chain shown (N, C = ends).

The nature of data set [1]: Kinetic solubility of compound in phosphate buffer at pH 7.4 by UV analysis. The data set is classed as physicochemical. Conditions: read-out: Kinetic_solubility.
Data set [2] is described as follows: Octanol/buffer partition coefficient, logD of the compound at pH 7.4 incubated for 24 hrs by shake flask method based UV analysis. In kind it is physicochemical.
The nature of data set [3]: Retention time of the compound by RP-HPLC analysis. The data set is classed as physicochemical.
A short description of data set [4]: Apparent membrane permeability of the compound in PBS buffer at pH 7.4 measured after 24 hrs by PAMPA assay. In kind it is ADME. For orientation: PAMPA measures passive passage across an artificial lipid membrane.
A short description of data set [5]: Kinetic solubility of the compound by RP-HPLC analysis.

In the case of H-RWVARRDYRGDMGFNYWVWE-OH, the solubility kinetic in data set [1] turned out to be 60 µM. In data set [2], the logD at 24 h is -0.8. In data set [3], the Retention_time is 20.9 min. Moreover, in data set [4], the Papp at 24 h is 0.02 ×10⁻⁶ cm/s.

Regarding H-RWVAREGMNTDGYFDYWHWE-OH, the solubility kinetic in data set [1] was 690 µM. The molecule also returned a logD at 24 h in data set [2] of 0.3. In addition, in data set [3], the Retention_time worked out at 21.1 min. The Papp at 24 h in data set [4] stood at 0.02 ×10⁻⁶ cm/s.

For the molecule H-RWVKRRDYRGDMGFDYWVWE-OH, the solubility kinetic in data set [1] was found to be 1800 µM. Besides, the logD at 24 h in data set [2] is -1.3. The molecule further came in with a Retention_time in data set [3] of 19.5 min. Besides, the Papp at 24 h in data set [4] is 0.02 ×10⁻⁶ cm/s.

For H-RWVARAYGNYWYIDVWHWE-OH, the solubility kinetic in data set [1] is 2 µM. For the same molecule, the logD at 24 h in data set [2] was determined as 0.6. For the same molecule, the Retention_time in data set [3] is given as 24.1 min. The apparent permeability (Papp) at 24 h in data set [4] worked out at 4.15 ×10⁻⁶ cm/s.

For H-RWVARRDYRGDMGFDYWVWE-OH, in data set [1], the solubility kinetic worked out at 20 µM. In data set [2], the logD at 24 h came out at 0.6. Further, the Retention_time in data set [3] is given as 21.5 min. Besides, in data set [4], the Papp at 24 h is 1.59 ×10⁻⁶ cm/s.

As to `CC(=O)CC(c1ccccc1)c1c(O)c2ccccc2oc1=O` (stereo not given) [WARFARIN], the Papp at 24 h in data set [4] was found to be 7.06 ×10⁻⁶ cm/s.

As to H-RWVVRRDYRFDMGFDYWVWE-OH, the solubility kinetic in data set [1] was 20 µM. The logD at 24 h in data set [2] is -1.1. Besides, the Retention_time in data set [3] stood at 23 min. In addition, the Papp at 24 h in data set [4] was 2.61 ×10⁻⁶ cm/s.

H-RWVAREGMNTDWYFDYWHWE-OH: the solubility kinetic in data set [1] turned out to be 20 µM. This molecule came in with a logD at 24 h in data set [2] of 1.2. The Retention_time in data set [3] is on record as 23.3 min. Moreover, the Papp at 24 h in data set [4] worked out at 0.42 ×10⁻⁶ cm/s.

For the molecule H-RWVWRDYRFDMGFDWVWE-OH, the solubility kinetic in data set [1] amounted to 20 µM. Also, in data set [2], the logD at 24 h worked out at 0.1. In addition, in data set [3], the Retention_time is given as 25.2 min. Also, the Papp at 24 h in data set [4] was found to be 5.28 ×10⁻⁶ cm/s.

Turning to H-RWVVRRDYRGDMGFDYWVWE-OH, the solubility kinetic in data set [1] is 30 µM. Also, the log distribution coefficient (logD) at 24 h in data set [2] was -0.9. The molecule further had a Retention time in data set [3] of 20.6 min. Moreover, the Papp at 24 h in data set [4] is 0.04 ×10⁻⁶ cm/s.

Regarding H-RWVWRDYRGDMGFDWVWE-OH, the solubility kinetic in data set [1] worked out at 20 µM. In data set [2], this molecule had a logD at 24 h of 0.9. In data set [3], this molecule came in with a Retention_time of 23.3 min. Also, in data set [4], the Papp at 24 h was found to be 0.01 ×10⁻⁶ cm/s.

On to H-RWVARRDYRGDMGFDYWHWE-OH, for which, in data set [1], the solubility kinetic was 40 µM. In data set [2], the logD at 24 h came to 0.7. For the same molecule, the Retention_time in data set [3] worked out at 20.3 min. The apparent permeability coefficient (Papp) at 24 h in data set [4] turned out to be 0.07 ×10⁻⁶ cm/s.

With H-RWVARRDYRFDMGFDYWHWE-OH, in data set [1], the solubility kinetic was 10 µM. The log distribution coefficient (logD) at 24 h in data set [2] was -0.5. Further, in data set [3], the Retention_time turned out to be 21.8 min. In addition, the Papp at 24 h in data set [4] was 2.55 ×10⁻⁶ cm/s.

In the case of H-RWVARRDYRFDMGFNYWVWE-OH, in data set [1], the solubility kinetic is 50 µM. In data set [2], this molecule yielded a log distribution coefficient (logD) at 24 h of 0.7. Further, in data set [3], the Retention_time is 22.6 min. The Papp at 24 h in data set [4] is 4.04 ×10⁻⁶ cm/s.

In the case of H-RWVARRDYRFDMGFDYWVWE-OH, the solubility kinetic in data set [1] was 10 µM. This molecule also showed a logD at 24 h in data set [2] of 0.2. In data set [3], this molecule displayed a Retention_time of 23.1 min. Besides, the apparent permeability (Papp) at 24 h in data set [4] worked out at 2.18 ×10⁻⁶ cm/s.

H-RWVAREGGWFGELAFNYWVWE-OH: the solubility kinetic in data set [1] worked out at 260 µM. Moreover, in data set [2], the logD at 24 h was -0.5. This molecule also gave a Retention_time in data set [3] of 21.2 min. In data set [4], the apparent permeability coefficient (Papp) at 24 h is 2.05 ×10⁻⁶ cm/s.

Consider `CSCC[C@@H]1NC(=O)[C@H](CC(=O)O)NC(=O)[C@H](Cc2ccccc2)NC(=O)[C@H](CCCNC(=N)N)NC(=O)[C@H](Cc2ccc(O)cc2)NC(=O)[C@H](CC(=O)O)NC(=O)[C@H](CCCNC(=N)N)NC(=O)[C@H](CCCNC(=N)N)NC(=O)[C@H](C)NC(=O)[C@@H](NC(=O)[C@H](Cc2c[nH]c3ccccc23)NC(=O)[C@@H](N)CCCNC(=N)N)CSSC[C@@H](C(=O)N[C@@H](Cc2c[nH]c3ccccc23)C(=O)N[C@@H](CCC(=O)O)C(=O)O)NC(=O)[C@H](Cc2c[nH]c3ccccc23)NC(=O)[C@H](Cc2ccc(O)cc2)NC(=O)[C@H](CC(=O)O)NC(=O)[C@H](Cc2ccccc2)NC(=O)CNC1=O` (H-RWCARRDYRFDMGFDYWCWE-OH; disulfide 3-18), for which the solubility kinetic in data set [1] amounted to 10 µM (≈ 27.6 µg/mL). For the same molecule, the logD at 24 h in data set [2] is -0.6. In data set [3], this molecule came in with a Retention_time of 22 min. In data set [4], the Papp at 24 h turned out to be 3.71 ×10⁻⁶ cm/s.

For H-RGVARRDYRGDPGFDYWHWE-OH, the solubility kinetic in data set [1] amounted to 18000 µM. Further, the logD at 24 h in data set [2] is -1.9. The Retention_time in data set [3] was 18.8 min. Further, in data set [4], the Papp at 24 h amounted to 0.26 ×10⁻⁶ cm/s.

With H-RWVARAYGNYGYIDVWHWE-OH, the solubility kinetic in data set [1] was determined as 70 µM. Besides, in data set [2], the logD at 24 h was -1.3. For the same molecule, in data set [3], the Retention_time is reported as 21.9 min. Also, in data set [4], the Papp at 24 h came out at 0.38 ×10⁻⁶ cm/s.

As to H-RWVWRDLDIATTRDYWVWE-OH, the solubility kinetic in data set [1] came to 140 µM. The same molecule showed a logD at 24 h in data set [2] of 0.8. In data set [3], this molecule displayed a Retention_time of 23.2 min. Besides, the Papp at 24 h in data set [4] was found to be 0.2 ×10⁻⁶ cm/s.

H-RWVKRRDYRFDMGFDYWVWE-OH showed a kinetic solubility in data set [5] of 21900 µM. The solubility kinetic in data set [1] turned out to be 20 µM. For the same molecule, the logD at 24 h in data set [2] is -0.4. For the same molecule, the Papp at 24 h in data set [4] came out at 0.14 ×10⁻⁶ cm/s.

As to H-RWVWSPDSSGVAYWVWE-OH, the solubility kinetic in data set [1] is 530 µM. The same molecule yielded a logD at 24 h in data set [2] of 0.9. Besides, the Retention_time in data set [3] amounted to 22.8 min. Also, in data set [4], the Papp at 24 h was 0.09 ×10⁻⁶ cm/s.
